# According to patent US7070767B2, “Fossorial rodent control compositions and methods” (priority 1998, dated 2006):
# Test system: rodents
# Test: effectiveness of respiratory irritants in the foam in hastening the death of rodents
# Assay type: in vivo
# Conditions: rodents that inhaled the foam/irritant combination
# Method: Furthermore, it is available in commercial quantities in a finely ground form which disperses quickly and evenly into the concentrated foaming agent and remains suspended as the foaming agent is diluted and aerated. Alternative respiratory irritants may share all of or many of these characteristics and include ground horseradish and powdered elemental sulphur.
# In the preferred embodiment, a concentrated composition is made by mixing the foaming agent in liquid concentrate form with the mustard powder, preferably in an approximate 3:1 ratio by weight, with the goal of achieving a 1% (w:v) foaming agent concentration and approximately 0.3% to 0.5% (w:v) mustard concentration when the concentrate is diluted to a use level. The proprietary concentrated foaming agents have specific gravities of approximately 1.029 kg per liter and it is generally recommended by the respective manufacturers that it be used in 0.1% to 1% concentration.
smiles,measurement,value
"[S] [powdered elemental sulphur, elemental sulphur]",effectiveness as respiratory irritant in the foam,effective but less so than the ground mustard
